Measurements: patent publication US8603493B2, “Carbosilane dendrimers, preparation method thereof and use of same” (Dendrico, S.L., priority 2005, dated 2013)

Columns and labels:
PBMC [1] = test: Flow cytometry test (size and complexity; live cells vs apoptosis-necrosis); assay type: cell-based, human; conditions: 72 hours, same concentrations as Trypan Blue test
Description: The evaluation time on this occasion was 72 hours. The toxicity was evaluated on PBMC, produced in the manner described in Example 38. […] The ODN used was PPT, in the following way: • [ODN PPT] in the complex with the CBS: 2.57 (0.88 μM) • [ODN PPT] in the complex with SF: 0.34 μM • [ODN PPT] in the complex with G4: 1 μM […] The cells were either incubated with said complexes, a mixture of equal volume which contained ODN without CBS, a mixture which contained dendrimer alone, or with a mixture which contained only RPMI+complete medium which was used as negative control. The cells and/or the supernatant were then collected to be analysed by flow cytometry, confocal microscopy or cell DNA extraction. The percentages of cells with size and complexity corresponding to cells in apoptosis-necrosis were compared with the live cells. For this, the size (FW) and the complexity (SD) was evaluated by flow cytometry. To do this, a region was drawn around the cells with FW and SD corresponding to cells in apoptosis-necrosis and another around the cells with FW and SD corresponding to live cells. The percentages of cells present in each slide were compared. The graphics produced are shown in FIG. 15, wherein the X-axis represents the size (FW) and the Y-axis the complexity (SD). […] The cloud of dark cells corresponds to cells in apoptosis necrosis. The live cells are represented in grey.

PBMC [2] = test: Staining with Trypan Blue of PBMC treated with dendriplexes or dendrimers; conditions: 72 hours, (+/−)=2/1, IM8 3.93 μM, IM16 1.99 μM, ClNH4 3.98 μM, Phe 1.96 μM, NN 3.94 μM, SF 0.68 μM, G4 100 μM, PPT 0.88 μM (0.34 μM with SF, 1 μM with G4), n = 100 cells per count
erythrocytes = test: Haemolysis test (haemoglobin release after 1 hour); assay type: cell-based; conditions: positive control, 0.2% Triton X-100
Description: A visual examination was carried out to detect the presence/absence of hemagglutination and quantification of haemoglobin release (haemolysis test) by spectrophotometry. ClNH4 was excluded from the dendrimers of previous Example 38, as the result had been more toxic for lymphocytes, and the results were compared with those produced for a PAMAN type generation 4 dendrimer.
The erythrocytes were obtained after being separated from the PBMC using the same Ficoll gradient cited in the previous Example. They were diluted in PBS to be able to view them individually. The cells were resuspended in 500 μl of PBS and were seeded in a 24-well plate (300,000/well). As positive control, cells treated with 0.2% Triton X-100 were used. Negative control: PBS (blank). The erythrocytes were incubated with different dendrimer concentrations. The presence of hemagglutination, number of cells and release of haemoglobin by hour were evaluated by collecting 100 μl of supernatant and measuring absorbencies by spectrophotometry using a plate reader at a wavelength of 550 nm and 690 nm as reference.
100% haemolysis in the control of Triton X-100 (the cells treated with Triton were all dead and broken). […] Each well is expressed as the percentage with respect to the O.D. (optical density) of Triton X-100, which is considered 100%; in addition to that percentage 7% of the control is subtracted. […]

PBMC [3] = test: Lymphoproliferative test (tritiated thymidine); assay type: cell-based, human; conditions: positive control, 1 μg/mL, 5 days, tested 12 times
Description: To evaluate the antigenic capacity of CBS dendrimers, a lymphoproliferative test was performed. The experiment was prepared in triplicate in a 96-well flat bottomed plate (100,000 cells per well in 200 μl of complete human AB medium with antibiotics, glutamine and 10% AB serum). […] After 5 days of incubation at 37° C. with 5% atmosphere of CO2 100 μl of supernatant was removed, then adding 100 μL of a medium with an isotopic intercalating agent of DNA, tritiated thymidine (prepared with 10% AB medium and Thymidine 1/100). The plate was then filtered using a Harvester passing its content through a filter, which was left to dry overnight (approx. 16 hours). After this period, a sheet of Methylex® containing scintillation medium was heat-melted, and it was read in a gamma camera to evaluate the number of counts (greater the counts, more proliferation). The results, which are shown below in Table 8, are expressed as tritiated thymidine counts per minute (cpm). Each result of each concentration was performed in triplicate, the value which appears in the table being the average of the 3. The PHA and the control were tested 12 times.

ODN = test: Complex formation between CBS and ODN (agarose gel electrophoresis); assay type: binding; conditions: 3% agarose gel, RPMI, excess positive charge (+/−) 2/1 and higher
From the text: The oligonucleotidic sequences used were antisense sequences (complementary) directed against HIV RNA. The length varied from 15 to 28 bases, being of phosphorothioate nature. The specific ODN used and their sequences are shown below in Table 1.
Several of the ODN were used fluorescent at the 5′ end. This is indicated by adding the letter F to its notation. Thus, “GF” makes reference to the fluorescent anti-gag ODN at end 5′, whilst “RF” makes reference to the anti-Rev ODN fluorescent at end 5′.
Different agarose concentrations were used to show the migration of the ODN and the dendriplexes, bearing in mind the small size of the ODN used. Finally, a 3% agarose concentration in TAE 1× was chosen as the best. The migration of non-fluorescent ODNs was compared with fluorescent ones, both migrating at the same height but the latter increasing the signal perceived considerably. Using them, it thus avoided the isotopic labelling of the ODN. A double well was manufactured to prepare these gels, to permit load volumes of 60 μl, of which 50 μl was mixture volume of the samples in RPMI and 10 μl load buffer with glycerol. As size marker, a ladder of 100 base pairs was used (Gibco BRL®).
For the complex formations in all the tests performed, both on gels and on cells the ratio between the number of positive and negative charges in said complex was taken. As published by different authors in studies with PAMAM dendrimers, it is necessary that the complex formed has an excess positive charge to facilitate its binding to the cell membrane glycoproteins, negatively charged, thus starting the endocytosis process. Likewise, an excess of positive charge is added to ensure the formation of the dendrimer-DNA complex. Therefore, the complexes between the CBS dendrimers and the different nucleic acids were formed in excess number of positive charges (provided by the CBS) compared with negative charges (provided by the ODN). Nevertheless, different charge ratios were tested, making the calculations based in the number of dendrimer charges (fixed) and the number of negative charges of the ODN (also fixed). The 2/1 ratio of positive/negative charges was fixed as sufficient in all dendrimers to form the complexes with a total positive charge, although in some experiments a balance was provided of an equal number of negative charges as positive charges or excess negative charges.
In all the tests, a complex formation volume of 60 μl was used, using phenol red without RPMI serum as support medium.
Tests of complex formation were used with the dendrimers of the invention IM8, ClNH4, NN, Phe and IM16.
The synthesis process of the CBS used in this work begins from an initial nucleus of common structure, which is ended functionalizing in the periphery by the use of different functional groups, which are those which provide the positive charge to the dendrimer and determine the differences between themselves, the dendrimeric nucleus being of apolar nature. Since some of the bonds of the functional groups used to the dendrimeric nucleus could be unstable in aqueous solution, tests were performed to determine if the DNA retention in agarose gels and, therefore, the complex formation between the CBS and the DNA could be due to the total dendrimer structure being conserved or in contrast, the terminal functional groups came away from the moiety of the dendrimeric core which are responsible for the DNA retention. For this, gels were used in which complexes were formed between the ODNs and the integral CBS and those formed supposedly between the ODNs and the terminal functional groups with which the carbosilane skeleton had functionalized, in this case quaternized dimethylethanolamine. As has previously been commented, those positively charged molecules, which are bound to the dendrimer as terminal functional groups, are those which give the dendrimer its charge. As control, the mixtures of ODN-dendrimers, ODN-monomers and ODN alone were compared. […]

In the case of “PPT: antisense phosphorothioate ODN against HIV mRNA, AATTTTCTTTTCGCCCCT (SEQ ID NO: 3), 18 bases [reference compound]”, the “Apoptosis-necrosis (%)” value (PBMC [1]) is reported as 23%, the “Live cells (%)” value (PBMC [1]) is reported as 71% and the “TB+ (%), cells stained with Trypan Blue” value (PBMC [2]) is reported as 11.9%.
Triton X-100 was tested, and the haemolysis (erythrocytes) was 100%.
For “phytohemagglutinin [PHA, reference compound]”, the “Measurement of the scintillation counter (tritiated thymidine counts)” value (PBMC [3]) was 10267 cpm.
With “quaternized dimethylethanolamine [monomers, reference compound]” the “complex formation with ODN (retention of DNA migration in gel)” value (ODN) was “not being capable”.
